{
  "source": "patent US8710233B2",
  "about": "(Gruenenthal GmbH, priority 2005, dated 2014)",
  "format_in_all_cases": "cell-based",
  "key": {"[1]": {"target": "VR1/TRPV1 receptor (Homo sapiens, UniProt Q8NER1)", "sequence (Q8NER1 whole entry)": "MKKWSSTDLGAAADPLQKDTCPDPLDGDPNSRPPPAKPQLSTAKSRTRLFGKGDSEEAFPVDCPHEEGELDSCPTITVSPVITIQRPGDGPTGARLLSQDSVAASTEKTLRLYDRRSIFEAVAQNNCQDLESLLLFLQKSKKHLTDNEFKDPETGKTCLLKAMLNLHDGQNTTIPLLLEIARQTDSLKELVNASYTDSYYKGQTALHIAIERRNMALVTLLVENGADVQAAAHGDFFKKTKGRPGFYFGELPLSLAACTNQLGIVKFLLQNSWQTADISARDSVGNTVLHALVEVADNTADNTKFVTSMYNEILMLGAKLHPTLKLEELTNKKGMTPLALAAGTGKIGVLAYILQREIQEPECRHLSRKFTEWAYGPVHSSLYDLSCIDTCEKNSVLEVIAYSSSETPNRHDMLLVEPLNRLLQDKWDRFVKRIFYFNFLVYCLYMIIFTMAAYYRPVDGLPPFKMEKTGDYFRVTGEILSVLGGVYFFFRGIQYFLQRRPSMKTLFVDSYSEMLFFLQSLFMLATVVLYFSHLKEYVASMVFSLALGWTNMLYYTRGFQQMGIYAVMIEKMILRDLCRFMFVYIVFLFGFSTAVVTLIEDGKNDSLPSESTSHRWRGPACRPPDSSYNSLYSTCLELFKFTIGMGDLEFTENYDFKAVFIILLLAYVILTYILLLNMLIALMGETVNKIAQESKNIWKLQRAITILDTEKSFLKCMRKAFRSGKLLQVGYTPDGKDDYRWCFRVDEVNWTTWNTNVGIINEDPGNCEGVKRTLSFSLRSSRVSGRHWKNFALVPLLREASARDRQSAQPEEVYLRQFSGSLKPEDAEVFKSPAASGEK", "assay": "IC50 (human) after pH stimulus"}, "[2]": {"target": "T1, vanilloid receptor (VR1) (Homo sapiens, UniProt Q8NER1)", "T1 construct": "expressed in transfected cells; host or cells: CHO K1 cells (ECACC), stably transfected", "T1 sequence (Q8NER1 whole entry)": "as above", "assay": "FLIPR Ca2+ influx assay on CHO K1 cells transfected with the VR1 gene (pharmacological method II)", "settings": "for inhibition in percent, Ki (human) Cap.: @ 10 μM"}, "[3]": {"target": "T2, vanilloid receptor 1 (VR1/TRPV1) of the rat species (Rattus norvegicus, UniProt O35433)", "T2 construct": "The spinal column is removed from decapitated rats; from tissue; host or cells: primary cells dissociated from rat dorsal root ganglia", "T2 sequence (O35433 whole entry)": "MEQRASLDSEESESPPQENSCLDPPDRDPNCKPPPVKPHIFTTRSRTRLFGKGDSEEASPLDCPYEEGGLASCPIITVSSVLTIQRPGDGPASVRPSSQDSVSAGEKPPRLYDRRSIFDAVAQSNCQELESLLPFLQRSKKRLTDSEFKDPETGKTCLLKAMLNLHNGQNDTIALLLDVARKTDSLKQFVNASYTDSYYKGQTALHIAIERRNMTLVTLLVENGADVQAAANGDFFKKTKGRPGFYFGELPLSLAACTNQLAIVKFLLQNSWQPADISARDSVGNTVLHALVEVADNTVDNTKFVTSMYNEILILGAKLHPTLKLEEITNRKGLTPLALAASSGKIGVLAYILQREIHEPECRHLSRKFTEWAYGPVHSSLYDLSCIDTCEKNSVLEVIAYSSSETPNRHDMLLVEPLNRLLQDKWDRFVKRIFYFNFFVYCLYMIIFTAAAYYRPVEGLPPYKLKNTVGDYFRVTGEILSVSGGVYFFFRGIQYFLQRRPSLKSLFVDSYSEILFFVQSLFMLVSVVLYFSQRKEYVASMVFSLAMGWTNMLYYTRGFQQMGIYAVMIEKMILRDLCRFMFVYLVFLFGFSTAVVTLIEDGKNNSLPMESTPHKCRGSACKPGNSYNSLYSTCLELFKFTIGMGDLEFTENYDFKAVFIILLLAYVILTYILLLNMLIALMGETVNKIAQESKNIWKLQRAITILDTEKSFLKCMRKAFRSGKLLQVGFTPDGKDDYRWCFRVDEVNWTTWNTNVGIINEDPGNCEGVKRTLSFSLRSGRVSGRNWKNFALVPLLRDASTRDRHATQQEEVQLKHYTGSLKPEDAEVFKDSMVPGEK", "assay": "FLIPR Ca2+ influx assay on rat dorsal root ganglia cells (pharmacological method I)", "settings": "for inhibition in percent, Ki (rat) Cap.: @ 10 μM", "text": "I. Functional Investigation of the Vanilloid Receptor 1 (VR1/TRPV1 Receptor)\nThe agonistic or antagonistic action of the substances to be investigated on the vanilloid receptor 1 (VR1/TRPV1) of the rat species may be determined by the following assay. According to this assay, the influx of Ca^2+ through the receptor channel is quantified with the assistance of a Ca^2+-sensitive dye (type Fluo-4, Molecular Probes Europe BV, Leiden, Netherlands) in a Fluorescent Imaging Plate Reader (FLIPR, Molecular Devices, Sunnyvale, USA).\nThe spinal column is removed from decapitated rats and is placed directly in cold, i.e. located in an ice bath, HBSS buffer (Hank's buffered saline solution, Gibco Invitrogen GmbH, Karlsruhe, Germany) combined with 1 vol. % (percent by volume) of an AA solution (antibiotic/antimycotic solution, PAA, Pasching, Austria). The spinal column is cut open longitudinally and removed together with fasciae from the spinal canal. The dorsal root ganglia (DRGs) are then removed and in turn stored in cold HBSS buffer combined with 1 vol. % of an AA solution. The DRGs, from which all traces of blood and spinal nerves have been removed, are in each case transferred into 500 μL of cold collagenase type 2 (PAA, Pasching, Austria) and incubated for 35 minutes at 37° C. […] Once incubation is complete, the enzyme solution is carefully removed by pipette and the DRGs, which are left behind, are in each case combined with 500 μL of complete medium.\nThe DRGs are in each case repeatedly suspended, drawn by means of a syringe through […], no. 12 and no. 16 cannulas and transferred into 50 mL Falcon microtubes and each tube is made up to 15 mL with complete medium. The contents of each Falcon microtube are in each case filtered through a 70 μm Falcon filter insert and centrifuged for 10 minutes at 1200 revolutions and room temperature. The resultant pellet is in each case resuspended in 250 μL of complete medium and the cell count determined.\nThe number of cells in the suspension is adjusted to 3×10^5 per mL and a 150 μL portion of this suspension is in each case placed in a well of the cell culture plate which has been coated as described above.\nThe cells are then loaded with 2 μM Fluo-4 and 0.01 vol. % Pluronic F127 (Molecular Probes Europe BV, Leiden, Netherlands) in HBSS buffer (Hank's buffered saline solution, Gibco Invitrogen GmbH, Karlsruhe, Germany) for 30 min at 37° C., washed 3× with HBSS buffer and, after a further 15 minutes' incubation at room temperature, used for Ca^2+ measurement in the FLIPR assay. […] Quantification proceeds by measuring the highest fluorescence intensity (FC, fluorescence counts) over time.\nThe FLIPR protocol comprises 2 additions of substance. The compounds to be tested (10 μM) are firstly pipetted onto the cells and Ca^2+ influx is compared with the control (capsaicin 10 μM). This provides the percentage activation relative to the Ca^2+ signal after addition of 10 μM of capsaicin (CP). After 5 minutes' incubation, 100 nM of capsaicin are added and the influx of Ca^2+ is again determined.\nDesensitising agonists and antagonists result in suppression of Ca^2+ influx. The percentage inhibition in comparison with the maximum achievable inhibition with 10 μM capsaicin is calculated.\nTriplicate determinations (n═3) are performed and these are repeated in at least 3 independent experiments […]."}, "[4]": {"settings": "table 4, capsaicin, read-out: Ki (human) Cap."}, "[5]": {"settings": "table 4, capsaicin, read-out: Ki (rat) Cap."}, "[6]": {"settings": "@ 1 μM, ne = no effect, read-out: inhibition in percent, IC50 (human) after pH stimulus"}, "[7]": {"settings": "read-out: inhibition in percent, IC50 (human) after pH stimulus"}, "[8]": {"settings": "Table 2, displacement of capsaicin (100 nM), Cheng-Prusoff, read-out: Ki (human)"}, "[9]": {"settings": "Table 2, displacement of capsaicin (100 nM), Cheng-Prusoff, read-out: Ki (rat)"}, "[10]": {"settings": "Ki (rat) Cap., table 4, capsaicin"}},
  "note": "pIC50, pKi: −log10 of the molar value. Where two headings read alike, the source gives them in different places.",
  "data": [
    {"smiles": "CC(C(=O)NCc1ccc(C(F)(F)F)nc1N1CCC(c2ccc(F)cc2)CC1)c1ccc(NS(C)(=O)=O)c(F)c1", "note": "(stereo not drawn) [Example 200, 2-(3-fluoro-4-methylsulfonamido-phenyl)-N-[4-(4-fluoro-phenyl)-6′-trifluoromethyl-3,4,5,6-tetrahydro-2H-[1,2′]bipyridinyl-3′-ylmethyl]-propionamide]", "values": [
      {"measurement": "pIC50", "setting": "[1]; table 4", "value": 7.09},
      {"measurement": "pKi", "setting": "[2]; [4]", "value": 8.38},
      {"measurement": "pKi", "setting": "[3]; [5]", "value": 8.47}
    ]},
    {"smiles": "CC(C(=O)NCc1ccc(C(F)(F)F)nc1N1CCC(CN(C)C)(c2ccccc2)CC1)c1ccc(NS(C)(=O)=O)c(F)c1", "note": "(stereo not drawn) [Example 259, N-(4-dimethylaminomethyl-4-phenyl-6′-trifluoromethyl-3,4,5,6-tetrahydro-2H-[1,2′]bipyridinyl-3′-ylmethyl)-2-(3-fluoro-4-methylsulfonamido-phenyl)-propionamide]", "values": [
      {"measurement": "inhibition at 1 µM", "setting": "[1]; [6]", "value": 51, "unit": "%"},
      {"measurement": "inhibition at 10 µM", "setting": "[1]; @ 10 μM, read-out: inhibition in percent, IC50 (human) after pH stimulus", "value": 47, "unit": "%"},
      {"measurement": "pKi", "setting": "[2]; [4]", "value": 7.81},
      {"measurement": "pKi", "setting": "[3]; [5]", "value": 7.64}
    ]},
    {"smiles": "COc1ccc(-c2nc(C(F)(F)F)ccc2CNC(=O)C(C)c2ccc(NS(C)(=O)=O)c(F)c2)cc1", "note": "(stereo not drawn) [Example 151, 2-(3-fluoro-4-methylsulfonamido-phenyl)-N-[2-(4-methoxy-phenyl)-6-trifluoromethyl-pyridin-3-ylmethyl]-propionamide]", "values": [
      {"measurement": "pIC50", "setting": "[1]; table 4", "value": 7.03},
      {"measurement": "pKi", "setting": "[2]; [4]", "value": 9.00},
      {"measurement": "pKi", "setting": "[3]; [5]", "value": 8.85}
    ]},
    {"smiles": "CC1CCN(c2nc(C(F)(F)F)ccc2CNC(=O)C(C)c2ccc(NS(=O)(=O)N(C)C)c(F)c2)CC1", "note": "(stereo not drawn) [Example 288, 2-(4-dimethylaminsulfonylamino-3-fluoro-phenyl)-N-(4-methyl-6′-trifluoromethyl-3,4,5,6-tetrahydro-2H-[1,2′]bipyridinyl-3′-ylmethyl)-propionamide]", "values": [
      {"measurement": "inhibition in percent, IC50 (human) after pH stimulus", "setting": "[1]; @ 1 μM, ne = no effect", "value": "ne @ 1 μM"},
      {"measurement": "pKi", "setting": "[2]; [4]", "value": 7.38},
      {"measurement": "pKi", "setting": "[3]; [5]", "value": 7.39}
    ]},
    {"smiles": "COc1ccc(-c2nc(C(F)(F)F)ccc2CNC(=O)C(C)c2ccc(NS(C)(=O)=O)c(F)c2)cc1F", "note": "(stereo not drawn) [Example 254, 2-(3-fluoro-4-methylsulfonamido-phenyl)-N-[2-(3-fluoro-4-methoxy-phenyl)-6-trifluoromethyl-pyridin-3-ylmethyl]-propionamide]", "values": [
      {"measurement": "inhibition at 0.1 µM", "setting": "[1]; [7]", "value": 19, "unit": "%"},
      {"measurement": "inhibition at 1 µM", "setting": "[1]; [6]", "value": 63, "unit": "%"},
      {"measurement": "pKi", "setting": "[2]; [4]", "value": 8.38},
      {"measurement": "pKi", "setting": "[3]; [5]", "value": 8.89}
    ]},
    {"smiles": "CC(C(=O)NCc1ccc(C(C)(C)C)cc1C#N)c1ccc(NS(C)(=O)=O)c(F)c1", "note": "(stereo not drawn) [Example 70, N-(4-tert-butyl-2-cyanobenzyl)-2-(3-fluoro-4-(methylsulfonamido)-phenyl)propanamide]", "values": [
      {"measurement": "pIC50", "setting": "[1]; Table 2", "value": 5.83},
      {"measurement": "pKi", "setting": "[2]; [8]", "value": 7.81},
      {"measurement": "pKi", "setting": "[3]; [9]", "value": 8.05}
    ]},
    {"smiles": "C[C@@H](C(=O)NCc1ccc(C(F)(F)F)nc1N1CCCCC1)c1ccc(NS(C)(=O)=O)c(F)c1", "note": "[Example 11, (R)-2-(3-fluoro-4-(methylsulfonamido)phenyl)-N-((2-(piperidin-1-yl)-6-(trifluoromethyl)pyridin-3-yl)methyl)propanamide]", "values": [
      {"measurement": "pIC50", "setting": "[1]; Table 2", "value": 7.33},
      {"measurement": "pKi", "setting": "[2]; [8]", "value": 9.52},
      {"measurement": "pKi", "setting": "[3]; [9]", "value": 8.96}
    ]},
    {"smiles": "CC(C(=O)NCc1ccc(C(F)(F)F)nc1OCC1CCCC1)c1ccc(NS(C)(=O)=O)c(F)c1", "note": "(stereo not drawn) [Example 161, N-(2-cyclopentylmethoxy-6-trifluoromethyl-pyridin-3-ylmethyl)-2-(3-fluoro-4-methylsulfonamido-phenyl)-propionamide]", "values": [
      {"measurement": "pIC50", "setting": "[1]; table 4", "value": 7.94},
      {"measurement": "pKi", "setting": "[2]; [4]", "value": 9.40},
      {"measurement": "pKi", "setting": "[3]; [10]", "value": 9.15}
    ]},
    {"smiles": "CC(C(=O)NCc1ncc(C(F)(F)F)cc1Cl)c1ccc(NS(C)(=O)=O)c(F)c1", "note": "(stereo not drawn) [Example 77]", "values": [
      {"measurement": "inhibition in percent, IC50 (human) after pH stimulus", "setting": "[1]; @ 1 μM, ne = no effect", "value": "ne @ 1 μM"},
      {"measurement": "inhibition in percent, Ki (human) Cap.", "setting": "[2]", "value": 21, "unit": "% @ 10 μM"},
      {"measurement": "inhibition in percent, Ki (rat) Cap.", "setting": "[3]", "value": 57, "unit": "% @ 10 μM"}
    ]},
    {"smiles": "CC(C(=O)NCc1ccc(C(F)(F)F)nc1OC1Cc2ccccc2C1)c1ccc(NS(C)(=O)=O)c(F)c1", "note": "(stereo not drawn) [Example 245, 2-(3-fluoro-4-methylsulfonamido-phenyl)-N-[2-(indan-2-yloxy)-6-trifluoromethyl-pyridin-3-ylmethyl]-propionamide]", "values": [
      {"measurement": "inhibition at 0.1 µM", "setting": "[1]; [7]", "value": 21, "unit": "%"},
      {"measurement": "inhibition at 1 µM", "setting": "[1]; [6]", "value": 74, "unit": "%"},
      {"measurement": "pKi", "setting": "[2]; [4]", "value": 8.57},
      {"measurement": "pKi", "setting": "[3]; [10]", "value": 8.77}
    ]},
    {"smiles": "CC(C(=O)NCc1ccc(C(F)(F)F)nc1N1CCNCC1)c1ccc(NS(C)(=O)=O)c(F)c1", "note": "(stereo not drawn) [Example 74]", "values": [
      {"measurement": "inhibition in percent, IC50 (human) after pH stimulus", "setting": "[1]; @ 10 μM", "value": 35, "unit": "% @ 10 μM"},
      {"measurement": "inhibition in percent, Ki (human) Cap.", "setting": "[2]", "value": 71, "unit": "% @ 10 μM"},
      {"measurement": "inhibition in percent, Ki (rat) Cap.", "setting": "[3]", "value": 70, "unit": "% @ 10 μM"}
    ]}
  ]
}
